Measured values as given in paper PMC11729550, “Discovery of indole analogue Tc3 as a potent pyroptosis inducer and identification of its combination strategy against hepatic carcinoma” (Theranostics, 2025).

Experiments:
shDFNA5 HepG2 cells = assay: Dose-response growth inhibition, GSDME knockdown cells; type: cell-based; details: Homo sapiens
Method: (§1) The cells were counted with hemocytometer.
Briefly, the pLKO.1 or shRNA plasmids with psPAX2 and PMD2.G were transfected into HEK-293T cells via DNA transfection reagent (SignaGen®Laboratories, SL100688). And the cell supernatant contained Lenti-virus was collected after 24 hours. The Lenti-virus of shRNAs were used to infect the hepatic carcinoma cells and the stable-transfection cell lines were screened by puromycin (1 μg/mL) (Solarbio, P8230).

[1] = Pharmacokinetic study of vein administration; type: in vivo; details: Balb/c mice, intravenous 10 mg/kg
Method: Chromatographic conditions employed an ultimate AQ-C18 column (2.1 mm × 50 mm, 5.0 μm) and its temperature was set to 40℃. The mobile phase consisted of methanol and 0.1% formic acid, with a gradient elution program: 0-0.01 min, methanol 15%, 0.01-2 min, methanol 95%, 2-3 min, methanol 15%. The flow rate was set to 0.6 mL/min, the elution time was 3 min and ESI-MS in negative mode MRM was used for quantitative analysis. Masslynx 4.1 software was used for data acquisition and instrument control.
Stock solutions of Tc3 (1.0 mg/mL) and JBHDN (0.1 mg/mL) were prepared in methanol. A series of working solutions (5, 20, 100, 200, 800, 1000 and 2000 ng/mL) were added into blank mouse blood to prepare the standard curves. The JBHDN stock solution was diluted with 5% trichloroacetic acid-methanol to 100 ng/mL. In the same manner as the standard curve, quality control (QC) samples at 10 ng/mL, 450 ng/mL, and 1500 ng/mL were prepared. Next, Balb/c mice were administered intravenously (10 mg/kg). After 5 min, 15 min, 30 min, 1 h, 2 h, 4 h, 8 h, and 24 h, blood samples (20 μL) were collected from the tail vein of mice and mixed with internal standard JBHDN (100 ng/mL). The mixtures were then vortexed for 10 min at 4℃ and centrifuged at 5500 g for 10 min. The supernatant was mixed with 200 μL ultrapure water, and then injected into liquid chromatography-tandem mass spectrometry (LC-MS/MS) system for analysis.

AML-12 cells [2] = assay: Dose-response growth inhibition of liver parenchymal cells; type: cell-based; details: AML12; mouse liver parenchymal cells
Excerpt: as §1
(E) Dose-response curves for Tc3 inhibiting the growth of AML-12 cells.

[3] = system: HepG2, SK-Hep1, and PLC-PRF5 cells; assay: Cell proliferation assays (growth curve, colony formation); type: cell-based, human; details: 0-4 μM
Method: For colony formation, hepatic carcinoma cells were seeded in 6-well plates and treated with Tc3 for almost 10 days, and the cell colonies were photographed for statistical analysis.

hepatocarcinoma PDXs = assay: Hepatocarcinoma PDXs treatment; type: in vivo, Balb/c nude mice; details: 20 mg/kg and 40 mg/kg i.p. ten times, day 20
Excerpt: Balb/c nude mice (female, 6-week-old) were subcutaneously injected with 2 × 10^6 HepG2 cells on the left and right flanks to construct cell-derived xenografts (CDXs). The patient-derived xenografts (PDXs) samples were gifts from Dr Changliang Shan of Nankai University. C57 BL/6N mice (female, 5-week-old) were subcutaneously injected with 2 × 10^6 Hepa1-6 cells mixed with matrigel (ABW, 0827265) on the left and right flanks. The mice were inoculated with hepatic carcinoma CDXs or PDXs for at least four days, and treated (i.p.) by vehicle and Tc3. […] Tumor volume = 4π/3 × (Length/2) × (Width/2)^2. All animal experiments were carried out in accordance with the recommendations of Requirements of the Ethical Review System of Biomedical Research Involving Human by National Health and Family Planning Commission of China and Nankai University Ethics Committee with written informed consent complying with the Declaration of Helsinki (IAEC ID: 2023-STDWLL-000249).

PLC-PRF5 cells = assay: Anti-tumor activity assay (IC50 value), cells counted after three days; type: cell-based; details: Homo sapiens, PLC-PRF-5, 72 h
Excerpt: as §1

SK-Hep1 cells = assay: as above; details: Homo sapiens, SK-HEP1, 72 h, read-out: IC50 SK-Hep1
Method: (§2) For half maximal inhibitory concentrations (IC50) analysis, the hepatic carcinoma cells (HepG2, SK-Hep1 and PLC-PRF5) were seeded in 24-well plates respectively, then treated with drugs at concentration gradient for three days. The cells were counted with hemocytometer. […] A is the cell quantity of the control group and B is the cell quantity of the drug treated group. The cell inhibition rate was transformed using its logarithm. And the drug IC50 value were calculated by Graphpad Prsim 9 software with curve fitting of the drug concentration and log (cell inhibition rate).

HepG2 cells [4] = assay: RNA sequencing analysis; type: cell-based, human; details: HepG2, 4 μM, 24h, versus DMSO
Method: HepG2 cells were treated with dimethyl sulfoxide (DMSO) or Tc3 (4 μM) for 24h. And the total RNA was isolated using TRIzol (Solarbio, R1100). Next, the samples were processed and the RNA libraries were constructed by APTBIO company (Shanghai, China). Paired-end reads were aligned to a reference genome index which created using HISAT2, with read assignments to each gene quantified with feature counts. Gene expression was quantified using Transcripts Per Million (TPM). We identified Differentially Expressed Genes (DEGs) using the DESeq2 package in R, defining DEGs as those with an absolute log2 fold change greater than 1 and an adjusted p-value less than 0.05. We performed Gene Ontology (GO) and KEGG pathway enrichment analyses using the "cluster Profiler" package in R. GO terms and KEGG pathways with an adjusted P-value less than 0.05 were statistically significant. Our results were visualized using the ggplot2 and fact extra packages in R.

HepG2 cells [5] = assay: Anti-tumor activity assay (IC50 value), cells counted after three days;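 note: HepG2 cells exposed to a drug concentration series for 3 days, then counted with a hemocytometer, inhibition relative to untreated control cell number, IC50 obtained by curve fitting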
Method: as §2

AML-12 cells [6] = assay: Flow cytometry of propidium iodide and annexin V-FITC staining; type: cell-based, mouse
Excerpt: Figure 2 Cytotoxic effect of Tc3 on human hepatic carcinoma cells in vitro. […] (B-C) Cell viability rates of HepG2 (B) and SK-Hep1 (C) cells treated with Tb7, Tc1, Tc3, Tc4 and other clinical chemotherapy drugs. (D-F) Flow cytometry of propidium iodide and annexin V-fluorescein isothiocyanate (FITC)-stained HepG2 cells (D). Statistical analysis of the early apoptotic cells (E) and late apoptotic cells (F). (G-I) Flow cytometry of propidium iodide and annexin V-fluorescein isothiocyanate (FITC)-stained AML-12 cells (G). Statistical analysis of the early apoptotic cells (H) and late apoptotic cells (I). Data are presented as mean ± SD of three independent biological experiments. *p < 0.05, **p < 0.01, ***p < 0.001 and ****p < 0.0001, ns, no significant.

In the case of `CC(C)[C@H](N)C(=O)NCCCn1cc(/C=C2\S/C(=N\c3ccc(N4CCOCC4)cc3)N(Cc3ccc(F)cc3)C2=O)c2ccccc21` [Tc3], the IC50 (shDFNA5 HepG2 cells) is reported as 4.77 µM, the plasma drug concentration ([1]; 5 min-24 h) is reported as 12.4 to 1417.0 ng/mL and the AUC(0-t) ([1]; mouse, whole blood) is reported as 1520 ng·h/mL. For the same compound, the half-life ([1]; mouse, whole blood, read-out: half-life elimination t1/2 (converted)) was 8.08 h, the IC50 (AML-12 cells [2]) was 6.14 µM and the “tumor proliferation (growth curve, colony formation)” value [3] was “significantly inhibited tumor proliferation”. For the same compound, the “tumor size and weight of PDXs” value (hepatocarcinoma PDXs) was “significantly reduced the tumor size and weight”, the IC50 (PLC-PRF5 cells) was 1.79 µM and the IC50 (SK-Hep1 cells) was 1.64 µM. The “Number of down-regulated gene” value (HepG2 cells [4]) was 38, the “Number of up-regulated gene” value (HepG2 cells [4]) was 182 and the “number of DEGs” value (HepG2 cells [4]) was 220. The “fold increase in cellular potency” value (HepG2 cells [5]; HepG2, compared to T1) was about 12 fold, the IC50 (HepG2 cells [5]; Homo sapiens, HepG2, 72 h, read-out: IC50 HepG2) was 1.37 µM and the “cell death by annexin V / propidium iodide flow cytometry” value (AML-12 cells [6]) was “not observed”.
